Measured values taken from PubChem BioAssay AID248 (DTP/NCI, 2004).
Values joined by “and” are separate entries in the source; they are usually repeats but may differ in a detail not shown here. Equal entries are not always repeated. Inconclusive results and toxic doses are left out. No stated cut-off is given here; in the data, active means T/C of 150% or more; inactive means T/C below 125%.

System: L1210 leukemia ip in BDF1 mice, survival T/C
Assay: NCI In Vivo Anticancer Drug Screen. Data for tumor model L1210 Leukemia (intraperitoneal) in B6D2F1 (BDF1) mice
Conditions: endpoint: mean survival time, higher = longer survival
Outline: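 Each compound was tested against a transplantable tumor grown in mice. The endpoint was survival, with treated animals benchmarked against vehicle controls as a simple ratio.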

[1] = dose: 100.0 mg/kg/injection, schedule: Q04DX003 (ip), vehicle: Klucel (hydroxypropylcellulose) (HPC)
[2] = dose: 100.0 mg/kg/injection, schedule: Q04DX003 (ip), vehicle: saline
[3] = dose: 200.0 mg/kg/injection, schedule: Q04DX003 (ip), vehicle: Klucel (hydroxypropylcellulose) (HPC)
[4] = dose: 200.0 mg/kg/injection, schedule: Q04DX003 (ip), vehicle: saline
[5] = dose: 400.0 mg/kg/injection, schedule: Q04DX003 (ip), vehicle: Klucel (hydroxypropylcellulose) (HPC)
[6] = dose: 100.0 mg/kg/injection, schedule: Q01DX001 (ip), vehicle: saline
[7] = dose: 200.0 mg/kg/injection, schedule: Q01DX001 (ip), vehicle: saline
[8] = dose: 400.0 mg/kg/injection, schedule: Q01DX001 (ip), vehicle: saline
[9] = dose: 100.0 mg/kg/injection, schedule: Q01DX009 (ip), vehicle: saline with Tween-80
[10] = dose: 200.0 mg/kg/injection, schedule: Q01DX009 (ip), vehicle: saline with Tween-80
[11] = dose: 50.0 mg/kg/injection, schedule: Q01DX Z (ip), vehicle: carboxymethylcellulose (CMC)
[12] = dose: 100.0 mg/kg/injection, schedule: Q01DX Z (ip), vehicle: carboxymethylcellulose (CMC)
[13] = dose: 200.0 mg/kg/injection, schedule: Q01DX Z (ip), vehicle: carboxymethylcellulose (CMC)
[14] = dose: 50.0 mg/kg/injection, schedule: Q01DX009 (ip), vehicle: saline with Tween-80

Measured: T/C

CCSC(SCC)C(O)C(O)C(O)C(O)CO (configuration not stated)
inactive: dose: 100.0 mg/kg/injection, schedule: Q01DX009 (ip), vehicle: Klucel (hydroxypropylcellulose) (HPC) 101 % of control and 98 % of control | [1] 101 % of control and 92 % of control | [2] 101 % of control | dose: 200.0 mg/kg/injection, schedule: Q01DX009 (ip), vehicle: Klucel (hydroxypropylcellulose) (HPC) 106 % of control and 97 % of control | [3] 101 % of control and 95 % of control | [4] 93 % of control | dose: 400.0 mg/kg/injection, schedule: Q01DX009 (ip), vehicle: Klucel (hydroxypropylcellulose) (HPC) 114 % of control and 97 % of control | [5] 101 % of control and 92 % of control | dose: 400.0 mg/kg/injection, schedule: Q04DX003 (ip), vehicle: saline 92 % of control

O=C(O)C1(C(=O)O)CC(c2ccccc2)C1
inactive: dose: 75.0 mg/kg/injection, schedule: Q04DX003 (ip), vehicle: saline with Tween-80 101 % of control | dose: 150.0 mg/kg/injection, schedule: Q01DX009 (ip), vehicle: saline with Tween-80 91 % of control | dose: 150.0 mg/kg/injection, schedule: Q04DX003 (ip), vehicle: saline with Tween-80 95 % of control | dose: 300.0 mg/kg/injection, schedule: Q01DX009 (ip), vehicle: saline with Tween-80 91 % of control | dose: 300.0 mg/kg/injection, schedule: Q04DX003 (ip), vehicle: saline with Tween-80 101 % of control

Nc1c(-c2ncc[nH]2)ncn1C1OC(CO)C(O)C1O (configuration not stated)
inactive: dose: 100.0 mg/kg/injection, schedule: Q01DX005 (ip), vehicle: saline 94 % of control | dose: 200.0 mg/kg/injection, schedule: Q01DX005 (ip), vehicle: saline 93 % of control

Cc1c2c(ccc3ccccc32)cc2cccc[n+]12
inactive: dose: 2.0 mg/kg/injection, schedule: Q01DX Z (ip), vehicle: saline 101 % of control | dose: 4.0 mg/kg/injection, schedule: Q01DX Z (ip), vehicle: saline 116 % of control

COc1ccc(Cc2ccc3[nH]c(=O)cc(C)c3c2)cc1S(=O)(=O)O
inactive: [6] 104 % of control | [7] 105 % of control | [8] 94 % of control

c1cc2c3c(c1)-c1nc4ccccc4cc1CN3CCC2
inactive: [9] 94 % of control | [10] 105 % of control | dose: 400.0 mg/kg/injection, schedule: Q01DX009 (ip), vehicle: saline with Tween-80 96 % of control

Cc1ccccc1N1CCN(CCC(=O)c2cc3ccccc3o2)CC1
inactive: dose: 5.0 mg/kg/injection, schedule: Q01DX009 (ip), vehicle: saline with Tween-80 104 % of control | dose: 9.5 mg/kg/injection, schedule: Q04DX003 (ip), vehicle: saline with Tween-80 96 % of control | dose: 10.0 mg/kg/injection, schedule: Q01DX009 (ip), vehicle: saline with Tween-80 100 % of control | dose: 18.0 mg/kg/injection, schedule: Q01DX001 (ip), vehicle: saline with Tween-80 94 % of control | dose: 19.0 mg/kg/injection, schedule: Q04DX003 (ip), vehicle: saline with Tween-80 116 % of control | dose: 20.0 mg/kg/injection, schedule: Q01DX009 (ip), vehicle: saline with Tween-80 106 % of control | dose: 37.5 mg/kg/injection, schedule: Q01DX001 (ip), vehicle: saline with Tween-80 101 % of control

Cc1nc(N)[nH]c(=O)c1CCCNc1ccc(CCCCC2(CCl)OCCO2)cc1
inactive: [11] 98 % of control | [12] 101 % of control | [13] 95 % of control | dose: 400.0 mg/kg/injection, schedule: Q01DX Z (ip), vehicle: carboxymethylcellulose (CMC) 101 % of control

COC(=O)C1=C(\N2CCOCC2)CCCC/C=C\1C(=O)OC
inactive: dose: 100.0 mg/kg/injection, schedule: Q01DX001 (ip), vehicle: carboxymethylcellulose (CMC) 108 % of control | dose: 200.0 mg/kg/injection, schedule: Q01DX001 (ip), vehicle: carboxymethylcellulose (CMC) 105 % of control | dose: 400.0 mg/kg/injection, schedule: Q01DX001 (ip), vehicle: carboxymethylcellulose (CMC) 102 % of control

S=P(NCc1ccccc1)(NCc1ccccc1)NCc1ccccc1
inactive: dose: 100.0 mg/kg/injection, schedule: Q04DX002 (ip), vehicle: gum acacia 97 % of control | dose: 200.0 mg/kg/injection, schedule: Q04DX002 (ip), vehicle: gum acacia 97 % of control | dose: 400.0 mg/kg/injection, schedule: Q04DX002 (ip), vehicle: gum acacia 94 % of control

CC(C)CNC(=O)CCCc1ccc(N(CCCl)CCCl)cc1
inactive: dose: 4.0 mg/kg/injection, schedule: Q12HX018 (ip), vehicle: other 110 % of control | dose: 6.0 mg/kg/injection, schedule: Q12HX018 (ip), vehicle: other 95 % of control | dose: 8.0 mg/kg/injection, schedule: Q12HX018 (ip), vehicle: other 112 % of control

NNc1n[nH]c(=O)[nH]c1=O
inactive: [6] 102 % of control | [7] 96 % of control | [8] 96 % of control

ClCCCCOCCl
inactive: [14] 101 % of control | [9] 97 % of control | [10] 87 % of control

C[n+]1cccc2cc(NC(=O)c3ccc(C(=O)Nc4ccc5c(ccc[n+]5C)c4)cc3)ccc21
inactive: dose: 0.94 mg/kg/injection, schedule: Q01DX Z (ip), vehicle: saline 94 % of control | dose: 1.88 mg/kg/injection, schedule: Q01DX Z (ip), vehicle: saline 92 % of control | dose: 30.0 mg/kg/injection, schedule: Q01DX010 (oral), vehicle: saline 100 % of control | dose: 240.0 mg/kg/injection, schedule: Q01DX010 (oral), vehicle: saline 100 % of control

C1CCC(OB2OB(OC3CCCCC3)OB(OC3CCCCC3)O2)CC1
inactive: dose: 50.0 mg/kg/injection, schedule: Q04DX003 (ip), vehicle: saline 93 % of control | [6] 93 % of control | dose: 100.0 mg/kg/injection, schedule: Q01DX009 (ip), vehicle: saline 97 % of control | [2] 98 % of control | [7] 98 % of control | dose: 200.0 mg/kg/injection, schedule: Q01DX009 (ip), vehicle: saline 110 % of control | [4] 103 % of control | [8] 86 % of control | dose: 400.0 mg/kg/injection, schedule: Q01DX009 (ip), vehicle: saline 111 % of control

Cn1c(=O)cn[nH]c1=O
inactive: [14] 100 % of control | [9] 108 % of control | [10] 103 % of control

CCOc1ccc(CCC(=O)O)cc1
inactive: [1] 100 % of control | [3] 105 % of control | [5] 94 % of control

O=C(CBr)c1ccc(S(=O)(=O)c2ccccc2)cc1
inactive: dose: 5.0 mg/kg/injection, schedule: Q01DX001 (ip), vehicle: carboxymethylcellulose (CMC) 93 % of control | dose: 10.0 mg/kg/injection, schedule: Q01DX001 (ip), vehicle: carboxymethylcellulose (CMC) 93 % of control | dose: 20.0 mg/kg/injection, schedule: Q01DX001 (ip), vehicle: carboxymethylcellulose (CMC) 95 % of control

Cc1ccn(-c2ccccc2)n1
inactive: dose: 100.0 mg/kg/injection, schedule: Q01DX009 (ip), vehicle: other 100 % of control | dose: 100.0 mg/kg/injection, schedule: Q04DX003 (ip), vehicle: other 101 % of control | dose: 200.0 mg/kg/injection, schedule: Q01DX009 (ip), vehicle: other 90 % of control | dose: 200.0 mg/kg/injection, schedule: Q04DX003 (ip), vehicle: other 104 % of control | dose: 400.0 mg/kg/injection, schedule: Q01DX009 (ip), vehicle: other 107 % of control | dose: 400.0 mg/kg/injection, schedule: Q04DX003 (ip), vehicle: other 104 % of control

O=C(Nc1ccc(/C=C/c2ccc(NC(=O)Nc3cccc(C4=NCCN4)c3)cc2)cc1)Nc1cccc(C2=NCCN2)c1
inactive: dose: 3.75 mg/kg/injection, schedule: Q01DX Z (ip), vehicle: carboxymethylcellulose (CMC) 93 % of control | dose: 7.5 mg/kg/injection, schedule: Q01DX Z (ip), vehicle: carboxymethylcellulose (CMC) 98 % of control | dose: 15.0 mg/kg/injection, schedule: Q01DX Z (ip), vehicle: carboxymethylcellulose (CMC) 96 % of control | [11] 103 % of control | [12] 102 % of control | [13] 97 % of control

CNc1ccccc1C(=O)N/N=C/Cc1ccccc1
inactive: dose: 100.0 mg/kg/injection, schedule: Q04DX002 (ip), vehicle: Klucel (hydroxypropylcellulose) (HPC) 103 % of control | dose: 200.0 mg/kg/injection, schedule: Q04DX002 (ip), vehicle: Klucel (hydroxypropylcellulose) (HPC) 92 % of control | dose: 400.0 mg/kg/injection, schedule: Q04DX002 (ip), vehicle: Klucel (hydroxypropylcellulose) (HPC) 106 % of control
